From ChEMBL document CHEMBL5150064 (J Med Chem, 2022)
≈ marks a conversion by molar mass, not a printed value.

What was measured:
[1] = molecular target: T1, Phosphatidylinositol 4,5-bisphosphate 3-kinase catalytic subunit alpha isoform (Homo sapiens, UniProt P42336); experiment: Inhibition of PI3Kalpha (unknown origin) using PIP2:3PS as substrate in presence of ATP measured after 120 mins by ADP-Glo assay
Homo sapiens [2] = organism: Homo sapiens; experiment: Selectivity ratio of Ki for PI3Kdelta (unknown origin) to Ki for PI3Kalpha (unknown origin)
Homo sapiens [3] = organism: Homo sapiens; experiment: Selectivity ratio of EC50 for PI3Kalpha H1047R mutant in human HCC1954 cells assessed as reduction in PRAS40 phosphorylation to EC50 for wild type PI3Kalpha in human HDQ-P1 cells assessed as reduction in PRAS40 phosphorylation; format: cell-based
[4] = Lipophilicity, logD of compound in 1-Octanol/PBS at pH 7.4 by LC-MS/MS method; format: physicochemical
[5] = Kinetic solubility of the compound at pH 7.4; format: physicochemical; conditions: buffer, read-out: Kinetic_solubility
[6] = Apparent permeability across apical to basolateral side in MDCK cells at 10 uM measured upto 180 mins by LC-MS/MS method; format: ADME, cell-based, Canis lupus familiaris; conditions: dog
[7] = Clearance in Sprague-Dawley rat plasma at 1 mg/kg, iv measured upto 8 hrs by LC-MS/MS analysis; format: ADME, organism-based
[8] = Oral bioavailability in Sprague-Dawley rat plasma at 5 mg/kg measured upto 8 hrs by LC-MS/MS method; format: ADME, organism-based
[9] = molecular target: T1, Phosphatidylinositol 4,5-bisphosphate 3-kinase catalytic subunit alpha isoform; experiment: Inhibition of PI3Kalpha in human HDQ-P1 cells assessed as reduction in PRAS40 phosphorylation after 24 hrs by electrochemiluminescent assay; format: cell-based
[10] = molecular target: Phosphatidylinositol 4,5-bisphosphate 3-kinase catalytic subunit alpha isoform (Homo sapiens, UniProt P42336, H1047R)
Chain of Phosphatidylinositol 4,5-bisphosphate 3-kinase catalytic subunit alpha isoform (Homo sapiens, UniProt P42336, H1047R) (P42336 whole entry H1047R, canonical isoform): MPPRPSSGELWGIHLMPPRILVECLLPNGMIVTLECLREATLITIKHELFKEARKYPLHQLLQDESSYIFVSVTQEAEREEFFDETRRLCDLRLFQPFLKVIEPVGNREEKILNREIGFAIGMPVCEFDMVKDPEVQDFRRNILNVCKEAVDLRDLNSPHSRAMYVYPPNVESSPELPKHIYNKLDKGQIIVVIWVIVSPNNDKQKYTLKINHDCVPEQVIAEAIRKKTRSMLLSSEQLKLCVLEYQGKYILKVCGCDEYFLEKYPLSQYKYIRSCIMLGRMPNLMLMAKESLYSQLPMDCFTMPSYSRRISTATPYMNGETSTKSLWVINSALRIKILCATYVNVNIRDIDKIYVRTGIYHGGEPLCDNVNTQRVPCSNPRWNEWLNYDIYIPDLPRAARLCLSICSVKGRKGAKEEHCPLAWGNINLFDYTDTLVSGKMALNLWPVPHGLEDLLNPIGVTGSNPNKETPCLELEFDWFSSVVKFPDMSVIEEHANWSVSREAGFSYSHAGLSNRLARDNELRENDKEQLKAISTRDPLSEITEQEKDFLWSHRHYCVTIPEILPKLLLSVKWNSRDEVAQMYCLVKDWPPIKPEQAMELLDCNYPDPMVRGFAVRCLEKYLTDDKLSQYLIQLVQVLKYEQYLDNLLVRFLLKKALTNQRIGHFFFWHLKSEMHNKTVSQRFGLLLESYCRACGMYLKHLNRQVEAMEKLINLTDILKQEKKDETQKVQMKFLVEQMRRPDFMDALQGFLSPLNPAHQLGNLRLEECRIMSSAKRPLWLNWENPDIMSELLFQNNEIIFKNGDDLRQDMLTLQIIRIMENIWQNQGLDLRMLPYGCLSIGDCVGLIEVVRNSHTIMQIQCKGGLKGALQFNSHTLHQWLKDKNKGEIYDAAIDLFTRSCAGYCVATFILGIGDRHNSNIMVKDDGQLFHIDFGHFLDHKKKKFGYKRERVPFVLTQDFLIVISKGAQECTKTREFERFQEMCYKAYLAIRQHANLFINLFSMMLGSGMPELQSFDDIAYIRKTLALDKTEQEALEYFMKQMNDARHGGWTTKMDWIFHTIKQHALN

[11] = Oral bioavailability in Sprague-Dawley rat plasma at 3 mg/kg measured upto 8 hrs by LC-MS/MS method; format: ADME, organism-based

T1 sequence (P42336 whole entry, canonical isoform): as the sequence (P42336 whole entry H1047R, canonical isoform) above, with R1047H counted along it

Q: With `NC(=O)[C@@H]1CCCN1c1ccc2c(c1)OCCn1cc(N3CC[C@H](O)C3=O)nc1-2` as the compound, how does the Ki [1] read?
A: 0.355 nM

Q: And the Ratio Ki (Homo sapiens [2])?
A: 13

Q: And the Ratio EC50 (Homo sapiens [3])?
A: 5.2

Q: And the logD [4]?
A: 0.4

Q: What about the solubility kinetic [5] of the same compound?
A: 143 µM (≈ 56.8 µg/mL)

Q: What about the Papp A→B at 3 h, 10 µM [6] of the same compound?
A: 0.3 ×10⁻⁶ cm/s

Q: What about the clearance [7] of the same compound?
A: 27 mL/min/kg

Q: And the bioavailability [8]?
A: 9%

Q: And the EC50 [9]?
A: 327 nM

Q: And the EC50 [10]?
A: 63 nM

Q: Which results are given for `NC(=O)[C@@H](Nc1ccc2c(c1)OCCn1cc(N3C(=O)OC[C@H]3C(F)(F)F)nc1-2)C1CC1`?
A: Ki [1]: 0.1 nM; Ratio Ki (Homo sapiens [2]): 285; Ratio EC50 (Homo sapiens [3]): 1.1; logD [4]: 1.2; Papp A→B at 3 h, 10 µM [6]: 1.1 ×10⁻⁶ cm/s; clearance [7]: 94 mL/min/kg; bioavailability [11]: 98%; EC50 [10]: 52 nM
